Measured values taken from patent US10167262B2, “Herbicidal substituted 3-arylpyrazoles” (FMC CORPORATION, priority 2014, dated 2019).

tested on: barnyardgrass (Echinochloa crus-galli); test: Test B flooded paddy test, plant response rating 0-100; format: in vivo; conditions: Flood, 250 g ai/ha; scale 0 to 100 (0 no effect, 100 complete control); 13 to 15 days
Procedure, shortened: (§1)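 Pots were flooded to 3 cm above the soil surface at treatment, compound applied directly to the paddy water, and that depth held throughout. Plants were kept in a greenhouse for 13 to 15 days, then visually rated against untreated controls.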

Row | Compound | Plant response rating, Barnyardgrass
1 | O=C(c1ccccc1)c1cn(S(=O)(=O)C(F)(F)F)nc1-c1cc(Cl)cc(Cl)c1 [Compound 2] | 0

tested on: ducksalad (Heteranthera limosa); test: as above; format: in vivo; conditions: Flood, 250 g ai/ha; scale 0 to 100 (0 no effect, 100 complete control); 13 to 15 days
Procedure, shortened: as §1

Row | Compound | Plant response rating, Ducksalad
2 | O=C(c1ccccc1)c1cn(S(=O)(=O)C(F)(F)F)nc1-c1cc(Cl)cc(Cl)c1 [Compound 2] | 0

tested on: rice (Oryza sativa); test: as above; format: in vivo; conditions: Flood, 250 g ai/ha; scale 0 to 100 (0 no effect, 100 complete control); 13 to 15 days
Procedure, shortened: as §1

Row | Compound | Plant response rating, Rice
3 | O=C(c1ccccc1)c1cn(S(=O)(=O)C(F)(F)F)nc1-c1cc(Cl)cc(Cl)c1 [Compound 2] | 0

tested on: sedge, umbrella (small-flower umbrella sedge, Cyperus difformis); test: as above; format: in vivo; conditions: Flood, 250 g ai/ha; scale 0 to 100 (0 no effect, 100 complete control); 13 to 15 days
Procedure, shortened: as §1

Row | Compound | Plant response rating, Sedge, Umbrella
4 | O=C(c1ccccc1)c1cn(S(=O)(=O)C(F)(F)F)nc1-c1cc(Cl)cc(Cl)c1 [Compound 2] | 0

tested on: barnyardgrass (Echinochloa crus-galli); test: Test C pre-/postemergence greenhouse test, plant response rating 0-100; format: in vivo; conditions: Postemergence, 62 g ai/ha
Procedure, shortened: (§2)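 Plants were treated either at seeding (soil of loam and sand) or as 2–18 cm seedlings in a sphagnum peat mix, using test chemicals in a surfactant-containing non-phytotoxic solvent. Visual assessment relative to controls followed 13–15 days later.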

Row | Compound | Plant response rating (0 to 100), Barnyardgrass
5 | O=C(c1ccccc1)c1cn(S(=O)(=O)C(F)(F)F)nc1-c1cc(Cl)cc(Cl)c1 [Compound 2] | 0

same assay, conditions: Postemergence, 125 g ai/ha; scale 0 to 100

Row | Compound | Plant response rating, Barnyardgrass
6 | O=C(c1ccccc1)c1cn(S(=O)(=O)C(F)(F)F)nc1-c1cc(Cl)cc(Cl)c1 [Compound 2] | 0

same assay, conditions: Postemergence, 250 g ai/ha; scale 0 to 100

Row | Compound | Plant response rating, Barnyardgrass
7 | O=C(c1ccccc1)c1cn(S(=O)(=O)C(F)(F)F)nc1-c1cc(Cl)cc(Cl)c1 [Compound 2] | 0

same assay, conditions: Postemergence, 500 g ai/ha; scale 0 to 100

Row | Compound | Plant response rating, Barnyardgrass
8 | O=C(c1ccccc1)c1cn(S(=O)(=O)C(F)(F)F)nc1-c1cc(Cl)cc(Cl)c1 [Compound 2] | 0

tested on: oilseed rape (Brassica napus); test: as above; format: in vivo; conditions: Postemergence, 62 g ai/ha
Procedure, shortened: as §2

Row | Compound | Plant response rating (0 to 100), Oilseed Rape
9 | O=C(c1ccccc1)c1cn(S(=O)(=O)C(F)(F)F)nc1-c1cc(Cl)cc(Cl)c1 [Compound 2] | 70

same assay, conditions: Postemergence, 125 g ai/ha

Row | Compound | Plant response rating (0 to 100), Oilseed Rape
10 | O=C(c1ccccc1)c1cn(S(=O)(=O)C(F)(F)F)nc1-c1cc(Cl)cc(Cl)c1 [Compound 2] | 70

same assay, conditions: Postemergence, 250 g ai/ha; scale 0 to 100

Row | Compound | Plant response rating, Oilseed Rape
11 | O=C(c1ccccc1)c1cn(S(=O)(=O)C(F)(F)F)nc1-c1cc(Cl)cc(Cl)c1 [Compound 2] | 90

same assay, conditions: Postemergence, 500 g ai/ha; scale 0 to 100

Row | Compound | Plant response rating, Oilseed Rape
12 | O=C(c1ccccc1)c1cn(S(=O)(=O)C(F)(F)F)nc1-c1cc(Cl)cc(Cl)c1 [Compound 2] | 90

tested on: waterhemp (common waterhemp, Amaranthus rudis); test: as above; format: in vivo; conditions: Postemergence, 62 g ai/ha
Procedure, shortened: as §2

Row | Compound | Plant response rating (0 to 100), Waterhemp
13 | O=C(c1ccccc1)c1cn(S(=O)(=O)C(F)(F)F)nc1-c1cc(Cl)cc(Cl)c1 [Compound 2] | 85

same assay, conditions: Postemergence, 125 g ai/ha

Row | Compound | Plant response rating (0 to 100), Waterhemp
14 | O=C(c1ccccc1)c1cn(S(=O)(=O)C(F)(F)F)nc1-c1cc(Cl)cc(Cl)c1 [Compound 2] | 85

same assay, conditions: Postemergence, 250 g ai/ha; scale 0 to 100

Row | Compound | Plant response rating, Waterhemp
15 | O=C(c1ccccc1)c1cn(S(=O)(=O)C(F)(F)F)nc1-c1cc(Cl)cc(Cl)c1 [Compound 2] | 100

same assay, conditions: Postemergence, 500 g ai/ha; scale 0 to 100

Row | Compound | Plant response rating, Waterhemp
16 | O=C(c1ccccc1)c1cn(S(=O)(=O)C(F)(F)F)nc1-c1cc(Cl)cc(Cl)c1 [Compound 2] | 100

same assay, conditions: Preemergence; 0 to 100 scale (0 no effect, 100 complete control); rate 500 g ai/ha

Row | Compound | Plant response rating, Waterhemp
17 | O=C(c1ccccc1)c1cn(S(=O)(=O)C(F)(F)F)nc1-c1cc(Cl)cc(Cl)c1 [Compound 2] | 100

tested on: waterhemp_RES2, (ALS & HPPD resistant common waterhemp, Amaranthus rudis); test: Test E postemergence greenhouse test, plant response rating 0-100; format: in vivo; conditions: 31 g ai/ha, scale 0 to 100
Procedure, shortened: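 Resistant waterhemp biotypes grown in peat/vermiculite medium and treated postemergence at 2–18 cm height (1- to 4-leaf stage). Kept in greenhouse 14 to 21 days, then visually rated against untreated controls on a 0–100 scale (0 no effect, 100 complete control).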

Row | Compound | Plant response rating, Waterhemp_RES2
18 | O=C(c1ccccc1)c1cn(S(=O)(=O)C(F)(F)F)nc1-c1cc(Cl)cc(Cl)c1 [Compound 2] | 0

same assay, conditions: 62 g ai/ha, scale 0 to 100

Row | Compound | Plant response rating, Waterhemp_RES2
19 | O=C(c1ccccc1)c1cn(S(=O)(=O)C(F)(F)F)nc1-c1cc(Cl)cc(Cl)c1 [Compound 2] | 65

same assay, conditions: 125 g ai/ha, scale 0 to 100

Row | Compound | Plant response rating, Waterhemp_RES2
20 | O=C(c1ccccc1)c1cn(S(=O)(=O)C(F)(F)F)nc1-c1cc(Cl)cc(Cl)c1 [Compound 2] | 85

same assay, conditions: 250 g ai/ha, scale 0 to 100

Row | Compound | Plant response rating, Waterhemp_RES2
21 | O=C(c1ccccc1)c1cn(S(=O)(=O)C(F)(F)F)nc1-c1cc(Cl)cc(Cl)c1 [Compound 2] | 95

same assay, conditions: 500 g ai/ha, scale 0 to 100

Row | Compound | Plant response rating, Waterhemp_RES2
22 | O=C(c1ccccc1)c1cn(S(=O)(=O)C(F)(F)F)nc1-c1cc(Cl)cc(Cl)c1 [Compound 2] | 98
